According to patent US20210128537A1, “T-TYPE CALCIUM CHANNEL MODULATORS AND METHODS OF USE THEREOF” (Praxis Precision Medicines, inc., priority 2016, published 2021):

Legend:
[1] = test system: post-SE rats; experiment: Morris water maze in post-SE rats; assay type: in vivo, rat; conditions: Z944 60 mg/kg/day, levetiracetam 200 mg/kg/day for 4 weeks
Method: (§1) All behavioural tests were performed in a light-controlled (˜110 lux), closed, quiet and clean room in the. Behavioural testing was performed in a blinded manner to the treatment groups. All of the behavioural tests were video recorded for future analysis. OF, EPM and MWM sessions were filmed using a digital camera mounted above the centre of the arena, which was connected to a computer for the recording and objective analysis of digitized behavioural tests (EthoVision 3.0.15, Noldus). The first behavioural test was performed one week after the last EEG recording. The different behavioural tests/session were performed 24 hours apart from each other. All tests were scored by an experienced observer who was blind to the experimental conditions of the animals.
The MWM is a circular black PVC plastic pool of 160 cm diameter which is filled to a depth of either 2.5 cm above a 10 cm diameter hidden platform water at 25±1° C. The platform is located in the centre of the South-West quadrant during the first 3 sessions and changed to North-East quadrant for the remaining sessions. Visual cues are placed in the main 4 cardinal points, consisting of large black and white symbols that serve as orientation landmarks for the rats. […] The latency to find the escape platform, speed and strategic path used by the animal to locate the platform are recorded. […]

[2] = test system: post-SE rats; experiment: Forced swim test in post-SE rats; assay type: in vivo, rat; conditions: Z944 60 mg/kg/day for 4 weeks, p<0.05
Method: as §1
The FST was performed in a clear Plexiglas cylinder (50 cm long×30 cm diameter) filled with water (25±1° C.). The FST was divided into a 15-min training session and a 5-min test session performed 24 h later, as previously described. Immobility time and swimming time were analysed.

[3] = test system: T-type calcium channels (CaV3.1, CaV3.2, CaV3.3) mRNA; experiment: Quantitative PCR of T-type Ca2+ channel expression in the hippocampus of post-SE rats; assay type: in vivo, rat; conditions: 9 weeks after treatment ended
Method: RNA was extracted using the RNeasy Mini Kit (QIAGEN), DNA elimination columns were used to remove any genomic DNA contamination in accordance with the manufacturer's protocol. RNA concentration and purity was determined using spectrophotometric readings with the NanoDrop 3000 spectrophotometer (NanoDrop Technologies). 1 μg RNA was reverse transcribed to cDNA using the Omniscript RT Kit (QIAGEN) following the manufacturer's protocol. T-type Ca^2+ channel expression was assessed using quantitative polymerase chain reaction (qPCR). Each 10 μl reaction volume consisted in 25 ng of cDNA, 5 μl of TaqMan Universal PCR Master Mix 2× and custom designed TaqMan using catalogued 20× Taqman gene expression assays for CaV3.1 (Assay ID Rn00581051_m1, Applied Biosystems), CaV3.2 (Assay ID Rn01460348_m1, Applied Biosystems), CaV3.3 (Assay ID Rn01505208_m1, Applied Biosystems). Relative mRNA expression of the CaV3.1, CaV3.2 and CaV3.3 were compared to the geometric average of the mRNA levels of the housekeeping genes Rplp1 (Rn03467157_gH), Rpl13a (Rn00821946_g1) and Ywhaz (Assay ID: Rn00755072_m1). Analysis was performed using the ΔΔCT method. The average of the relative expression levels was compared between the different treatment groups.

[4] = target: hCaV3.2 (Homo sapiens, UniProt O95180); experiment: Inactivated channel state FLIPR assay, concentration-dependent inhibition of hCaV3.2; assay type: cell-based; conditions: logistic function fit
Sequence of hCaV3.2 (O95180 whole entry): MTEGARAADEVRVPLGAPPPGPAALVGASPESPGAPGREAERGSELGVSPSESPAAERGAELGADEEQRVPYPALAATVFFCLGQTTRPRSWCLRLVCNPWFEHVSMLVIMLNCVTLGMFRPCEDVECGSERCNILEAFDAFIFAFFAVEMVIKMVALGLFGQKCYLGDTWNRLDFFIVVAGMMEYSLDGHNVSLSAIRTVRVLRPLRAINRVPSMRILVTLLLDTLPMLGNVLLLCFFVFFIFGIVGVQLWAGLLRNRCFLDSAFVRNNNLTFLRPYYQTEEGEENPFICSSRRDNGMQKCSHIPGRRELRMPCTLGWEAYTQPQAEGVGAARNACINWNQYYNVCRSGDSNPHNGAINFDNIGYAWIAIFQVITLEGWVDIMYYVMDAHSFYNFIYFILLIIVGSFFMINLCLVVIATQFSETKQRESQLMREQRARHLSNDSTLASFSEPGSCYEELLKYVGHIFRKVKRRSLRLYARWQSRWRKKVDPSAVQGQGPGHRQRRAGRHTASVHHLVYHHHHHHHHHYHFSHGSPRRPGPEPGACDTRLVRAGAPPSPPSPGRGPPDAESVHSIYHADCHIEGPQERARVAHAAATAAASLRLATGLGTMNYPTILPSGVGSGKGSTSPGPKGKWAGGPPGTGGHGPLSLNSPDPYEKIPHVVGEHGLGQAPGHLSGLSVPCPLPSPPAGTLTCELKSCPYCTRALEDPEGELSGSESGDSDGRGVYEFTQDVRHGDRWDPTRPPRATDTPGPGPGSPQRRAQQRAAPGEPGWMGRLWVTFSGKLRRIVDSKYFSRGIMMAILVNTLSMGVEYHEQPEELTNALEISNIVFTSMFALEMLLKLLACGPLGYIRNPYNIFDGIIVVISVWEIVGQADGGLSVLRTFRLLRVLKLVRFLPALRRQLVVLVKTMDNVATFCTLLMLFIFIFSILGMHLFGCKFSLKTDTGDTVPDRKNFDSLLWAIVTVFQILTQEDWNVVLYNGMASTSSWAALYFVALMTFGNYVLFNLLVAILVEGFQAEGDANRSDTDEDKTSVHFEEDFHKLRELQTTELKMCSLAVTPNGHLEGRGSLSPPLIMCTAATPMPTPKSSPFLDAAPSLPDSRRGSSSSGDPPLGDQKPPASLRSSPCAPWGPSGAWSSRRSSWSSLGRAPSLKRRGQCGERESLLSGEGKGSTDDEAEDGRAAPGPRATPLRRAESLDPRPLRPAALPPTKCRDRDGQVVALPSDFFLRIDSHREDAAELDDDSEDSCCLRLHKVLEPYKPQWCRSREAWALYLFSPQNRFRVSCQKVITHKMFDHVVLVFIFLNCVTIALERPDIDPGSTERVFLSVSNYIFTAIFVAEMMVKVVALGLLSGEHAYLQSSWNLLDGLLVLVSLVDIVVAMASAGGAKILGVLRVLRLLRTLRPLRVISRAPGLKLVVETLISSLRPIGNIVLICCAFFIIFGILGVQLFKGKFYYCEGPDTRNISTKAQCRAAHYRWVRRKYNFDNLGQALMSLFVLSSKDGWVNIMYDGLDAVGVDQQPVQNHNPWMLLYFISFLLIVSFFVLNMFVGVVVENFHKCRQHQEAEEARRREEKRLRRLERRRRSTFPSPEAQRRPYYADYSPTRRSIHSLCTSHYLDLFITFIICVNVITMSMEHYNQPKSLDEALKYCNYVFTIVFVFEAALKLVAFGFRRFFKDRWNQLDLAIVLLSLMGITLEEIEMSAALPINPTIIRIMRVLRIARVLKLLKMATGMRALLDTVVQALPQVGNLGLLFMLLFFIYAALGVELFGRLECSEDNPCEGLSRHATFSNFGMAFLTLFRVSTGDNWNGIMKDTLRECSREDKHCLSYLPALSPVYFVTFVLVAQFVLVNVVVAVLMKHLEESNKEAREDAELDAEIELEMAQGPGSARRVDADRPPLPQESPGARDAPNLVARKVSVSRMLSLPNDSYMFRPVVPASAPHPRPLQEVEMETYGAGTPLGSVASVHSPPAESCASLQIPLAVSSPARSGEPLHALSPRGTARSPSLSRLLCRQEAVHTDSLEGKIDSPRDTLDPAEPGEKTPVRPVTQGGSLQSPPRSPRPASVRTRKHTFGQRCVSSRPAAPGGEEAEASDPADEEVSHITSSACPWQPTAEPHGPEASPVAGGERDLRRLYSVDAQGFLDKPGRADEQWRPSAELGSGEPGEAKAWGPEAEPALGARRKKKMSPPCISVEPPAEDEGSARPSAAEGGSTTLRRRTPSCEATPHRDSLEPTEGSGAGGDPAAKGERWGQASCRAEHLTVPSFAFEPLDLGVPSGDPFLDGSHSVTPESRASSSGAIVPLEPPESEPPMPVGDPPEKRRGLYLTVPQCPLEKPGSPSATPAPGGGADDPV

[5] = test system: Naïve wistar rats; experiment: Drug tolerability study, seven-day osmotic pump; assay type: in vivo, rat
Method: Pumps were filled with either Z944 to deliver a daily dose of 60 mg/kg, levetiracetam to deliver a daily dose of 200 mg/kg or vehicle. For the drug tolerability study, osmotic pumps continuously either Z944, levetiracetam or vehicle for 7 days and for the post-SE study osmotic pumps delivered continuously the different treatments for 28 days.
The neurological side effects of the prolonged administration of Z944 and levetiracetam were assessed over one-week. Naïve wistar rats aged 11 weeks were implanted with a seven-day osmotic pump with Z944 (60 mg/kg/day, n=6), levetiracetam (200 mg/kg/day, n=5) and vehicle (n=6). The animals were evaluated twice per day, morning and afternoon, for side effects from the day of pump implantation to 8 days after.

[6] = test system: Wistar rats, amygdala kindling; experiment: Progression of seizures in the amygdala kindling model; assay type: in vivo, rat
Method: Animals were implanted with EEG recording electrodes and with a stimulating bipolar electrode in the left basolateral amygdaloid nucleus using the coordinates AP±3.0 mm, ML±5.9 mm, DV±6.0 mm. The after discharge threshold (ADT) for each animal was determined by administering a stimulation (frequency=60.1 Hz; duration=1000 μs) at one minute intervals until a seizure was clicited. The amplitude of the stimulation was started at 0.02 mA with increments of 0.02 mA; the stimulations were stopped when the animal experienced a seizure of ≥6 second duration, or if the amplitude of 0.40 mA was reached without the occurrence of a seizure. […] Kindling was performed twice a day for five days per week with an endpoint of 30 stimulations or until the animal presented five class V seizures (referred to as fully kindled). The seizure severity was classified from 0 (less severe) to V (most severe) according to the Racine Scale (Racine, 1972b). Sham kindled animals were handled the same way as the kindled animals, although no electrical stimulation was applied. An animal is classified as fully kindled once it has experienced 5 class V seizures.
Testing Z944 in the progression of seizures in the amygdala kindling model Wistar rats underwent surgery to implant bipolar stimulation electrodes and EEG recording electrodes as described above. ADT was determined as described for the anti-seizure study. Animals were randomly assigned to four different cohorts; Cohort 1: kindled sham+vehicle (n=8); Cohort 2: kindled+vehicle (n=6); Cohort 3: kindled+ETX (100 mg/kg, n=6) and Cohort 4: kindled+Z944 (30 mg/kg, n=7). Thirty minutes prior each kindling stimulation, the animals received an IP injection of vehicle, ETX, or Z944 administered at a dose volume of 5 ml/kg up to an endpoint of 30 stimulations and the seizure class elicited and seizure duration was recorded. […] Adverse effects were recorded every 15 minutes from the drug administration until 90 minutes after. An investigator blinded to the drug treatment analyzed all EEG recordings. The seizure class each stimulation elicited was recorded and averaged and the duration of the primary and total seizures were recorded.

CC(C)(C)NC(=O)CN1CCC(CNC(=O)c2cc(F)cc(Cl)c2)CC1 [Z944]
time to find the hidden platform (cognition) [1]: Improves Cognition
forced swim test immobility time [2]: vehicle had an increased immobility time when compared to both sham groups and post-SE+Z944 group
mRNA expression of T-type calcium channels in the hippocampus [3]: Reduced mRNA Expression
slope of the concentration-inhibition curve [4]: 1.5
neurological side effects in comparison to vehicle ([5]; 60 mg/kg/day osmotic pump, day 2 to day 5): transient and minimal side effects
neurological side effects compared to levetiracetam treated animals ([5]; Z944 60 mg/kg/day vs levetiracetam 200 mg/kg/day, day 2 and 3, p<0.05): significantly reduced neurological side effects
number of stimulations to evoke a class III, IV or V seizure ([6]; 30 mg/kg IP 30 min prior each stimulation, vs vehicle): required significantly more stimulations
number of treated animals that reached the fully kindled state ([6]; 30 mg/kg IP, n=7, up to 30 stimulations): one
number of stimulations to reach class V ([6]; 30 mg/kg IP, vs ETX 100 mg/kg (p<0.01)): required more stimulations
number of stimulations to reach the fully kindled state ([6]; 30 mg/kg IP, vs vehicle (p<0.01) and ETX (p<0.05)): required significantly more stimulations
